In patent US20240067693A1, “POLYPEPTIDES AND USES THEREOF” (MEDIMMUNE LIMITED, priority 2020, published 2024):
Numbered stars: 1 amine (or outer) side, 2 acyl side, 3 side chain; on linkers, the order of the positions; unused ones are H or OH. Bridge positions count the residues as written; N and C are the ends. Square brackets hold non-standard residues; d marks the D form. Side chains are listed from the residue outwards. Peptide text beside a SMILES is read from it. * marks the point of attachment. C20 diacid = O=C(O)CCCCCCCCCCCCCCCCCCC(=O)*; C18 diacid = O=C(O)CCCCCCCCCCCCCCCCC(=O)*; γGlu = O=C(O)[C@H](CCC(=O)[*:2])N[*:1]; αMeF = C[C@](N)(Cc1ccccc1)C(=O)O; AEEA = NCCOCCOCC(=O)O

Legend:
[1] = Pharmacokinetic determination via IV and SC administration in Sprague Dawley rats; settings: male, rat, plasma, 20 nmol/kg
[2] = biological target: T1, rat amylin receptor (calcitonin receptor co-expressed with receptor activity modifying protein, RAMP3) (Rat AMYR3) (Rattus norvegicus, UniProt P32214+Q9JJ73); experiment: cAMP production in HEK cells with stable recombinant expression of rat amylin receptor (Rat AMYR3); assay type: cell-based; settings: assay buffer with 0.1% BSA
T1 construct: expressed in transfected cells
T1 sequence (P32214 25-516): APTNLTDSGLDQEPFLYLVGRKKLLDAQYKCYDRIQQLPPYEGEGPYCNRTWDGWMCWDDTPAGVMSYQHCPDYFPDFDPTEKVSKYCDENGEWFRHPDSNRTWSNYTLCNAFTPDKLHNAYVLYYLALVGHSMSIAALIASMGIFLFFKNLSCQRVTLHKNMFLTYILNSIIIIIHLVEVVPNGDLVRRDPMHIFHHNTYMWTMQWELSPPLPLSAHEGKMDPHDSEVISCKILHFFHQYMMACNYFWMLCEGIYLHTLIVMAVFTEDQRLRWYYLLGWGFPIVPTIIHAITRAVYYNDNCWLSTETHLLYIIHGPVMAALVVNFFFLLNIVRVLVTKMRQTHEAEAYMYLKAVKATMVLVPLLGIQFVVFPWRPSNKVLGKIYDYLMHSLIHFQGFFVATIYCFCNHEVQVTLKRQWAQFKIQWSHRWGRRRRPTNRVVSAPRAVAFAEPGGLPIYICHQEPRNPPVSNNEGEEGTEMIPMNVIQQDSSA
T1 sequence (Q9JJ73 23-147 partner): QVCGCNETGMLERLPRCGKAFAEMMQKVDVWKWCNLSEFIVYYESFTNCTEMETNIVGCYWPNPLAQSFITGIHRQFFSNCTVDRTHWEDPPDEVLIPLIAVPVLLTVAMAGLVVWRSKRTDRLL
Summary of the method: (§1)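 Thawed cells in HBSS/0.1% BSA/25 mM HEPES pH 7.4 with 0.5 mM IBMX were incubated with peptides 30 min at room temperature; cAMP read by HTRF. EC50 from 4-parameter fit of % activation relative to maximal amylin or calcitonin effect.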

[3] = biological target: T2, rat calcitonin receptor (rat CTR) (Rattus norvegicus, UniProt P32214); experiment: cAMP production in HEK cells with stable recombinant expression of rat calcitonin receptor (rat CTR); assay type: cell-based; settings: assay buffer with 0.1% BSA
T2 construct: expressed in transfected cells
T2 sequence (P32214 25-516): T1 sequence (P32214 25-516)
Summary of the method: as §1

[4] = in vivo; settings: male, Sprague-Dawley, rat, 20 nmol/kg

Row | SMILES | half-life ([1]; iv) [h] | half-life ([1]; sc) [h] | EC50 [2] [pM] | EC50 [3] [pM] | half-life ([4]; iv) [h] | half-life ([4]; sc) [h]
1 | CC[C@H](C)[C@H](NC(=O)[C@@H]1CCCN1C(=O)CNC(=O)[C@](C)(Cc1ccccc1)NC(=O)[C@H](CC(N)=O)NC(=O)[C@H](CC(N)=O)NC(=O)[C@H](CO)NC(=O)[C@H](CO)NC(=O)[C@H](Cc1c[nH]cn1)NC(=O)[C@H](CCCNC(=N)N)NC(=O)[C@H](CC(C)C)NC(=O)[C@H](Cc1ccccc1)NC(=O)[C@H](CCC(=O)O)NC(=O)[C@H](C)NC(=O)[C@H](CC(C)C)NC(=O)[C@H](CCCNC(=N)N)NC(=O)[C@H](CCC(N)=O)NC(=O)[C@@H](NC(=O)[C@H](C)NC(=O)[C@@H]1CSSC[C@H](NC(=O)CC[C@H](NC(=O)CCCCCCCCCCCCCCCCC(=O)O)C(=O)O)C(=O)N[C@@H](CC(N)=O)C(=O)N[C@@H]([C@@H](C)O)C(=O)N[C@@H](C)C(=O)N[C@@H]([C@@H](C)O)C(=O)N1)[C@@H](C)O)C(=O)N[C@@H](CC(C)C)C(=O)N1CCC[C@H]1C(=O)N1CCC[C@H]1C(=O)N[C@H](C(=O)N[C@@H](CC(N)=O)C(=O)N[C@H](C(=O)NCC(=O)N[C@@H](CO)C(=O)N[C@@H](CC(N)=O)C(=O)N[C@H](C(=O)N[C@@H](Cc1ccc(O)cc1)C(N)=O)[C@@H](C)O)C(C)C)[C@@H](C)O [Peptide 10, C18diacid-γE-[CNTATC]ATQRLAEFLRHSSNN(αMePhe)GPILPPTNVGSNTY-amide] ({C18 diacid-γGlu}-CNTATCATQRLAEFLRHSSNN[αMeF]GPILPPTNVGSNTY-NH2; disulfide 1-6) | 10.1 | 8.8 | 12.1 | 2780 |  | 
2 | CC[C@H](C)[C@H](NC(=O)[C@@H]1CCCN1C(=O)CNC(=O)[C@H](Cc1ccccc1)NC(=O)[C@H](CC(N)=O)NC(=O)[C@H](CC(N)=O)NC(=O)[C@H](CO)NC(=O)[C@H](CO)NC(=O)[C@H](Cc1c[nH]cn1)NC(=O)[C@@H](NC(=O)[C@H](CC(C)C)NC(=O)[C@H](Cc1ccccc1)NC(=O)[C@H](CC(N)=O)NC(=O)[C@H](C)NC(=O)[C@H](CC(C)C)NC(=O)[C@H](CCCNC(=N)N)NC(=O)[C@H](CCC(N)=O)NC(=O)[C@@H](NC(=O)[C@H](C)NC(=O)[C@@H]1CSSC[C@H](NC(=O)[C@H](CCCCN)NC(=O)CC[C@H](NC(=O)CCCCCCCCCCCCCCCCCCC(=O)O)C(=O)O)C(=O)N[C@@H](CC(N)=O)C(=O)N[C@@H]([C@@H](C)O)C(=O)N[C@@H](C)C(=O)N[C@@H]([C@@H](C)O)C(=O)N1)[C@@H](C)O)C(C)C)C(=O)N[C@@H](CC(C)C)C(=O)N1CCC[C@H]1C(=O)N1CCC[C@H]1C(=O)N[C@H](C(=O)N[C@@H](CC(N)=O)C(=O)N[C@H](C(=O)NCC(=O)N[C@@H](CO)C(=O)N[C@@H](CC(N)=O)C(=O)N[C@H](C(=O)N[C@@H](Cc1ccc(O)cc1)C(N)=O)[C@@H](C)O)C(C)C)[C@@H](C)O [Peptide 112] ({C20 diacid-γGlu}-KCNTATCATQRLANFLVHSSNNFGPILPPTNVGSNTY-NH2; disulfide 2-7) |  |  | 16 | 258 | 11.8 | 19
3 | CC[C@H](C)[C@H](NC(=O)[C@@H]1CCCN1C(=O)CNC(=O)[C@H](Cc1ccccc1)NC(=O)[C@H](CC(N)=O)NC(=O)[C@H](CC(N)=O)NC(=O)[C@H](CO)NC(=O)[C@H](CO)NC(=O)[C@H](Cc1c[nH]cn1)NC(=O)[C@@H](NC(=O)[C@H](CC(C)C)NC(=O)[C@H](Cc1ccccc1)NC(=O)[C@H](CC(N)=O)NC(=O)[C@H](C)NC(=O)[C@H](CC(C)C)NC(=O)[C@H](CCCNC(=N)N)NC(=O)[C@H](CCC(N)=O)NC(=O)[C@@H](NC(=O)[C@H](C)NC(=O)[C@@H]1CSSC[C@H](NC(=O)[C@H](CCCCN)NC(=O)COCCOCCNC(=O)COCCOCCNC(=O)CC[C@H](NC(=O)CCCCCCCCCCCCCCCCCCC(=O)O)C(=O)O)C(=O)N[C@@H](CC(N)=O)C(=O)N[C@@H]([C@@H](C)O)C(=O)N[C@@H](C)C(=O)N[C@@H]([C@@H](C)O)C(=O)N1)[C@@H](C)O)C(C)C)C(=O)N[C@@H](CC(C)C)C(=O)N1CCC[C@H]1C(=O)N1CCC[C@H]1C(=O)N[C@H](C(=O)N[C@@H](CC(N)=O)C(=O)N[C@H](C(=O)NCC(=O)N[C@@H](CO)C(=O)N[C@@H](CC(N)=O)C(=O)N[C@H](C(=O)N[C@@H](Cc1ccc(O)cc1)C(N)=O)[C@@H](C)O)C(C)C)[C@@H](C)O [Peptide 113] ({C20 diacid-γGlu-AEEA-AEEA}-KCNTATCATQRLANFLVHSSNNFGPILPPTNVGSNTY-NH2; disulfide 2-7) |  |  | 32.6 | 10400 | 11.2 | 18.2

Now those with a lower EC50 [2], led by results:

Row | half-life ([1]; iv) [h] | half-life ([1]; sc) [h] | EC50 [2] [pM] | EC50 [3] [pM] | half-life ([4]; iv) [h] | half-life ([4]; sc) [h] | SMILES
4 | 9.2 | 9.7 | 5 | 107 |  |  | CC[C@H](C)[C@H](NC(=O)[C@@H]1CCCN1C(=O)CNC(=O)[C@](C)(Cc1ccccc1)NC(=O)[C@H](CC(N)=O)NC(=O)[C@H](CC(N)=O)NC(=O)[C@H](CO)NC(=O)[C@H](CO)NC(=O)[C@H](Cc1c[nH]cn1)NC(=O)[C@H](CCCNC(=N)N)NC(=O)[C@H](CC(C)C)NC(=O)[C@H](Cc1ccccc1)NC(=O)[C@H](CCC(=O)O)NC(=O)[C@H](C)NC(=O)[C@H](CC(C)C)NC(=O)[C@H](CCCNC(=N)N)NC(=O)[C@H](CCC(N)=O)NC(=O)[C@@H](NC(=O)[C@H](C)NC(=O)[C@@H]1CSSC[C@H](NC(=O)[C@H](CCCCN)NC(=O)[C@@H](N)CCCCNC(=O)CC[C@H](NC(=O)CCCCCCCCCCCCCCCCC(=O)O)C(=O)O)C(=O)N[C@@H](CC(N)=O)C(=O)N[C@@H]([C@@H](C)O)C(=O)N[C@@H](C)C(=O)N[C@@H]([C@@H](C)O)C(=O)N1)[C@@H](C)O)C(=O)N[C@@H](CC(C)C)C(=O)N1CCC[C@H]1C(=O)N1CCC[C@H]1C(=O)N[C@H](C(=O)N[C@@H](CC(N)=O)C(=O)N[C@H](C(=O)NCC(=O)N[C@@H](CO)C(=O)N[C@@H](CC(N)=O)C(=O)N[C@H](C(=O)N[C@@H](Cc1ccc(O)cc1)C(N)=O)[C@@H](C)O)C(C)C)[C@@H](C)O [Peptide 12, K(γE-C18diacid)K[CNTATC]ATQRLAEFLRHSSNN(αMePhe)GPILPPTNVGSNTY-amide] (H-K([γGlu-C18 diacid])KCNTATCATQRLAEFLRHSSNN[αMeF]GPILPPTNVGSNTY-NH2; disulfide 3-8; N-terminus assumed)
5 | 10.4 | 11.5 | 10.3 | 1820 |  |  | CC[C@H](C)[C@H](NC(=O)[C@@H]1CCCN1C(=O)CNC(=O)[C@](C)(Cc1ccccc1)NC(=O)[C@H](CC(N)=O)NC(=O)[C@H](CC(N)=O)NC(=O)[C@H](CO)NC(=O)[C@H](CO)NC(=O)[C@H](Cc1c[nH]cn1)NC(=O)[C@H](CCCNC(=N)N)NC(=O)[C@H](CC(C)C)NC(=O)[C@H](Cc1ccccc1)NC(=O)[C@H](CC(N)=O)NC(=O)[C@H](C)NC(=O)[C@H](CC(C)C)NC(=O)[C@H](CCCNC(=N)N)NC(=O)[C@H](CCC(N)=O)NC(=O)[C@@H](NC(=O)[C@H](C)NC(=O)[C@@H]1CSSC[C@H](NC(=O)[C@H](CCCCN)NC(=O)[C@@H](N)CCCCNC(=O)CC[C@H](NC(=O)CCCCCCCCCCCCCCCCC(=O)O)C(=O)O)C(=O)N[C@@H](CC(N)=O)C(=O)N[C@@H]([C@@H](C)O)C(=O)N[C@@H](C)C(=O)N[C@@H]([C@@H](C)O)C(=O)N1)[C@@H](C)O)C(=O)N[C@@H](CC(C)C)C(=O)N1CCC[C@H]1C(=O)N1CCC[C@H]1C(=O)N[C@H](C(=O)N[C@@H](CCC(=O)O)C(=O)N[C@H](C(=O)NCC(=O)N[C@@H](CO)C(=O)N[C@@H](CC(N)=O)C(=O)N[C@H](C(=O)N[C@@H](Cc1ccc(O)cc1)C(N)=O)[C@@H](C)O)C(C)C)[C@@H](C)O [Peptide 15, K(γE-C18diacid)K[CNTATC]ATQRLANFLRHSSNN(αMePhe)GPILPPTEVGSNTY-amide] (H-K([γGlu-C18 diacid])KCNTATCATQRLANFLRHSSNN[αMeF]GPILPPTEVGSNTY-NH2; disulfide 3-8; N-terminus assumed)
